Reference: BindingDB's records for PubMed 40258217 (The Hebrew University of Jerusalem)

Molecular target: Cannabinoid receptor 1 (Mus musculus, UniProt P47746)
Assay: Displacement of [3H]CP-55940 from CB1R in C57Bl/6Jhsd mouse cortex membrane incubated for 1 hr by liquid scintillation counter analysis

Cannabinoid receptor 1, sequence (P47746 whole entry): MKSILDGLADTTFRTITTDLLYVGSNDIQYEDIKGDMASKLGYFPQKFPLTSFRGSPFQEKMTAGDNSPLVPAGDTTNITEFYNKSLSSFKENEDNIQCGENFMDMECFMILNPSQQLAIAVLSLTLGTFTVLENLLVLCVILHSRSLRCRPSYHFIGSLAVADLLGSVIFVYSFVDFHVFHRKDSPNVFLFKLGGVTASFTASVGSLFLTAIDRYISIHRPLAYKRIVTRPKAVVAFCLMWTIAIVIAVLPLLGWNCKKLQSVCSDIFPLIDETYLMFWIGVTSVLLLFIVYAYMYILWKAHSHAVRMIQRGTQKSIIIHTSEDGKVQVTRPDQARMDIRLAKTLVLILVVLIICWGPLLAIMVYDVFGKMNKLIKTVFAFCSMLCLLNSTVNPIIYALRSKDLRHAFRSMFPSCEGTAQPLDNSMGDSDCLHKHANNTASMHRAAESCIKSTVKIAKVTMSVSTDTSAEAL

Molecule `CCOC(=O)N1CCC(N[C@H]2CCCOc3c2nn(-c2ccccc2Cl)c3-c2ccc(Cl)cc2)CC1` has a Ki of 8.9 nM.
